Measured values: ChEMBL document CHEMBL1201861, “Genomics of Drug Sensitity in Cancer screening data, Wellcome Trust Sanger Institute”
pIC50: −log10 of the molar value.

Assays:
Test in all cases: cells
[1] = system: JAR; type: functional, cell-based, Homo sapiens; conditions: Homo sapiens, JAR;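 note: growth inhibition of human JAR cells determined with a cell viability assay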
Description: SANGER: Inhibition of human JAR cell growth in a cell viability assay.

[2] = system: NOS-1; type: functional, cell-based, Homo sapiens; conditions: Homo sapiens, NOS-1;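 note: growth inhibition of the human NOS-1 cell line, read out with a cell viability assay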
Description: SANGER: Inhibition of human NOS-1 cell growth in a cell viability assay.

[3] = system: SW 962; type: functional, cell-based, Homo sapiens; conditions: Homo sapiens, SW 962;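 note: growth inhibition of human SW962 cells, read out by a cell viability assay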
Description: SANGER: Inhibition of human SW962 cell growth in a cell viability assay.

[4] = system: 697; type: functional, cell-based, Homo sapiens; conditions: Homo sapiens
Description: SANGER: Inhibition of human 697 cell growth in a cell viability assay.

[5] = system: DSH1; type: functional, cell-based; conditions: Homo sapiens;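 note: growth inhibition of human DSH1 cells, measured with a cell viability readout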
Description: SANGER: Inhibition of human DSH1 cell growth in a cell viability assay.

[6] = system: NCI-H446; type: functional, cell-based, Homo sapiens; conditions: Homo sapiens, NCI-H446;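 note: growth inhibition of NCI-H446 cells determined by a cell viability assay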
Description: SANGER: Inhibition of human NCI-H446 cell growth in a cell viability assay.

[7] = system: EW-3; type: functional, cell-based, Homo sapiens; conditions: Homo sapiens, EW-3;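 note: cell viability assay read-out, IC50 reflects inhibition of growth of the EW-3 cells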
Description: SANGER: Inhibition of human EW-3 cell growth in a cell viability assay.

[8] = system: LU-139; type: functional, cell-based, Homo sapiens; conditions: Homo sapiens, LU-139
Description: SANGER: Inhibition of human LU-139 cell growth in a cell viability assay.

[9] = system: NCI-H747; type: functional, cell-based, Homo sapiens; conditions: Homo sapiens, NCI-H747;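 note: growth inhibition of human NCI-H747 cells, read out by a cell viability assay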
Description: SANGER: Inhibition of human NCI-H747 cell growth in a cell viability assay.

[10] = system: SNU1; type: functional, cell-based, Homo sapiens; conditions: Homo sapiens, SNU1;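 note: growth inhibition of human NCI-SNU-1 cells, measured with a cell viability assay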
Description: SANGER: Inhibition of human NCI-SNU-1 cell growth in a cell viability assay.

[11] = system: ATN-1; type: functional, cell-based, Homo sapiens; conditions: Homo sapiens, ATN-1;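 note: growth inhibition of human ATN-1 cells, read out with a cell viability assay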
Description: SANGER: Inhibition of human ATN-1 cell growth in a cell viability assay.

[12] = system: RKO; type: functional, cell-based, Homo sapiens; conditions: Homo sapiens, RKO;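 note: growth inhibition of human RKO cells, read out with a cell viability assay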
Description: SANGER: Inhibition of human RKO cell growth in a cell viability assay.

[13] = system: A4-Fuk; type: functional, cell-based, Homo sapiens; conditions: Homo sapiens, A4-Fuk;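 note: growth inhibition of A4-Fuk cells, read out by a cell viability assay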
Description: SANGER: Inhibition of human A4-Fuk cell growth in a cell viability assay.

[14] = system: NCI-H526; type: functional, cell-based, Homo sapiens; conditions: Homo sapiens, NCI-H526;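 note: growth inhibition of the human NCI-H526 cell line, measured by a cell viability assay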
Description: SANGER: Inhibition of human NCI-H526 cell growth in a cell viability assay.

[15] = system: ML-2; type: functional, cell-based, Homo sapiens; conditions: Homo sapiens, ML-2;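 note: growth inhibition of ML-2 cells, measured with a cell viability readout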
Description: SANGER: Inhibition of human ML-2 cell growth in a cell viability assay.

[16] = system: HCE-T; type: functional, cell-based, Homo sapiens; conditions: Homo sapiens, HCE-T;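 note: cell viability assay read-out, reporting inhibition of HCE-T cell growth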
Description: SANGER: Inhibition of human HCE-T cell growth in a cell viability assay.

[17] = system: CTB-1; type: functional, cell-based, Homo sapiens; conditions: Homo sapiens, CTB-1
Description: SANGER: Inhibition of human CTB-1 cell growth in a cell viability assay.

[18] = system: NMC-G1; type: functional, cell-based, Homo sapiens; conditions: Homo sapiens, NMC-G1;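 note: growth inhibition of the NMC-G1 cell line, measured with a cell viability read-out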
Description: SANGER: Inhibition of human NMC-G1 cell growth in a cell viability assay.

[19] = system: JVM-2; type: functional, cell-based, Homo sapiens; conditions: Homo sapiens, JVM-2;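 note: growth inhibition of JVM-2 cells determined by a cell viability assay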
Description: SANGER: Inhibition of human JVM-2 cell growth in a cell viability assay.

[20] = system: GCIY; type: functional, cell-based, Homo sapiens; conditions: Homo sapiens, GCIY;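 note: growth inhibition of the human GCIY cell line, read out by a cell viability assay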
Description: SANGER: Inhibition of human GCIY cell growth in a cell viability assay.

[21] = system: NB10; type: functional, cell-based, Homo sapiens; conditions: Homo sapiens, NB10;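 note: growth inhibition of NB10 cells, read out by a cell viability assay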
Description: SANGER: Inhibition of human NB10 cell growth in a cell viability assay.

[22] = system: TGBC1TKB; type: functional, cell-based, Homo sapiens; conditions: Homo sapiens, TGBC1TKB;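 note: growth inhibition of TGBC1TKB cells, read out by a cell viability assay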
Description: SANGER: Inhibition of human TGBC1TKB cell growth in a cell viability assay.

[23] = system: SK-N-FI; type: functional, cell-based, Homo sapiens; conditions: Homo sapiens, SK-N-FI;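 note: cell viability assay measuring growth inhibition of human SK-N-FI cells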
Description: SANGER: Inhibition of human SK-N-FI cell growth in a cell viability assay.

[24] = system: OVCAR-4; type: functional, cell-based, Homo sapiens; conditions: Homo sapiens, OVCAR-4;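 note: growth inhibition of human OVCAR-4 cells, measured with a cell viability assay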
Description: SANGER: Inhibition of human OVCAR-4 cell growth in a cell viability assay.

[25] = system: P30-OHK; type: functional, cell-based, Homo sapiens; conditions: Homo sapiens, P30-OHK;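 note: growth inhibition of the P30-OHK cell line, read out with a cell viability assay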
Description: SANGER: Inhibition of human P30-OHK cell growth in a cell viability assay.

[26] = system: U-266; type: functional, cell-based, Homo sapiens; conditions: Homo sapiens, U-266
Description: SANGER: Inhibition of human U-266 cell growth in a cell viability assay.

[27] = system: EW-13; type: functional, cell-based, Homo sapiens; conditions: Homo sapiens, EW-13; read-out: IC50;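 note: growth inhibition of EW-13 cells, read out with a cell viability assay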
Description: SANGER: Inhibition of human EW-13 cell growth in a cell viability assay.

[28] = system: SBC-1; type: functional, cell-based, Homo sapiens; conditions: Homo sapiens, SBC-1;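 note: cell viability assay measuring growth inhibition of the SBC-1 cell line, IC50 being the concentration that halves growth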
Description: SANGER: Inhibition of human SBC-1 cell growth in a cell viability assay.

[29] = system: SHP77; type: functional, cell-based, Homo sapiens, SHP-77; conditions: Homo sapiens, SHP77;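 note: growth inhibition of human SHP-77 cells measured by a cell viability assay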
Description: SANGER: Inhibition of human SHP-77 cell growth in a cell viability assay.

[30] = system: CAS-1; type: functional, cell-based, Homo sapiens; conditions: Homo sapiens, CAS-1;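 note: growth inhibition of CAS-1 cells, measured with a cell viability assay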
Description: SANGER: Inhibition of human CAS-1 cell growth in a cell viability assay.

[31] = system: KE-37; type: functional, cell-based, Homo sapiens; conditions: Homo sapiens, KE-37;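 note: growth inhibition of KE-37 cells, read out with a cell viability assay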
Description: SANGER: Inhibition of human KE-37 cell growth in a cell viability assay.

[32] = system: COLO-684; type: functional, cell-based, Homo sapiens; conditions: Homo sapiens, COLO-684
Description: SANGER: Inhibition of human COLO-684 cell growth in a cell viability assay.

[33] = system: GT3TKB; type: functional, cell-based, Homo sapiens; conditions: Homo sapiens, GT3TKB;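 note: growth inhibition of the cell line, read out with a cell viability assay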
Description: SANGER: Inhibition of human GT3TKB cell growth in a cell viability assay.

[34] = system: LB1047-RCC; type: functional, cell-based, Homo sapiens; conditions: Homo sapiens, LB1047-RCC;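 note: inhibition of cell growth, determined with a cell viability assay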
Description: SANGER: Inhibition of human LB1047-RCC cell growth in a cell viability assay.

[35] = system: A3-KAW; type: functional, cell-based, Homo sapiens; conditions: Homo sapiens, A3-KAW;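 note: growth inhibition of human A3-KAW cells, read out with a cell viability assay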
Description: SANGER: Inhibition of human A3-KAW cell growth in a cell viability assay.

[36] = system: NCI-H82; type: functional, cell-based, Homo sapiens; conditions: Homo sapiens, NCI-H82;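 note: growth inhibition of NCI-H82 cells, measured with a cell viability readout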
Description: SANGER: Inhibition of human NCI-H82 cell growth in a cell viability assay.

[37] = system: DJM-1; type: functional, cell-based, Homo sapiens; conditions: Homo sapiens, DJM-1;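 note: growth inhibition of human DJM-1 cells, read out by a cell viability assay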
Description: SANGER: Inhibition of human DJM-1 cell growth in a cell viability assay.

[38] = system: SK-NEP-1; type: functional, cell-based, Homo sapiens; conditions: Homo sapiens, SK-NEP-1;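 note: growth inhibition of human SK-NEP-1 cells, read out by a cell viability assay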
Description: SANGER: Inhibition of human SK-NEP-1 cell growth in a cell viability assay.

[39] = system: RXF 393; type: functional, cell-based, Homo sapiens; conditions: Homo sapiens, RXF 393;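 note: growth inhibition of human RXF 393 cells, read out with a cell viability assay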
Description: SANGER: Inhibition of human RXF393 cell growth in a cell viability assay.

[40] = system: MC116; type: functional, cell-based, Homo sapiens; conditions: Homo sapiens, MC116;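 note: growth inhibition of MC116 cells, read out with a cell viability assay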
Description: SANGER: Inhibition of human MC116 cell growth in a cell viability assay.

[41] = system: BE-13; type: functional, cell-based, Homo sapiens; conditions: Homo sapiens, BE-13;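 note: growth inhibition of human BE-13 cells, measured with a cell viability assay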
Description: SANGER: Inhibition of human BE-13 cell growth in a cell viability assay.

[42] = system: OS-RC-2; type: functional, cell-based, Homo sapiens; conditions: Homo sapiens, OS-RC-2;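 note: growth inhibition of human OS-RC-2 cells, measured by a cell viability assay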
Description: SANGER: Inhibition of human OS-RC-2 cell growth in a cell viability assay.

[43] = system: TK-10; type: functional, cell-based, Homo sapiens; conditions: Homo sapiens, TK-10;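 note: growth inhibition of TK-10 cells, read out in a cell viability assay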
Description: SANGER: Inhibition of human TK10 cell growth in a cell viability assay.

[44] = system: KURAMOCHI; type: functional, cell-based, Homo sapiens; conditions: Homo sapiens, KURAMOCHI;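 note: growth inhibition of KURAMOCHI cells, read out with a cell viability assay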
Description: SANGER: Inhibition of human KURAMOCHI cell growth in a cell viability assay.

[45] = system: HAL-01; type: functional, cell-based, Homo sapiens; conditions: Homo sapiens, HAL-01;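 note: growth inhibition of human HAL-01 cells, read out with a cell viability assay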
Description: SANGER: Inhibition of human HAL-01 cell growth in a cell viability assay.

[46] = system: ES4; type: functional, cell-based, Homo sapiens; conditions: Homo sapiens, ES4;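 note: growth inhibition of human ES4 cells, read out by a cell viability assay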
Description: SANGER: Inhibition of human ES4 cell growth in a cell viability assay.

[47] = system: LAMA-84; type: functional, cell-based, Homo sapiens; conditions: Homo sapiens, LAMA-84;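 note: growth inhibition of LAMA-84 cells, read out with a cell viability assay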
Description: SANGER: Inhibition of human LAMA-84 cell growth in a cell viability assay.

[48] = system: EW-1; type: functional, cell-based, Homo sapiens; conditions: Homo sapiens, EW-1;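 note: growth inhibition of the human EW-1 cell line, read out by a cell viability assay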
Description: SANGER: Inhibition of human EW-1 cell growth in a cell viability assay.

[49] = system: IST-MES1; type: functional, cell-based, Homo sapiens; conditions: Homo sapiens, IST-MES1;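 note: growth inhibition of IST-MES1 cells, measured with a cell viability assay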
Description: SANGER: Inhibition of human IST-MES1 cell growth in a cell viability assay.

[50] = system: L-363; type: functional, cell-based, Homo sapiens; conditions: Homo sapiens, L-363
Description: SANGER: Inhibition of human L-363 cell growth in a cell viability assay.

COc1ccc(-c2cc3nccn3c(Nc3ncccc3C(N)=O)n2)cc1OC
pIC50 [1]: < 5.10
pIC50 [2]: 6.32
pIC50 [3]: < 5.10
pIC50 [4]: 6.24
pIC50 [5]: < 5.10
pIC50 [6]: 5.30
pIC50 [7]: 5.31
pIC50 [8]: < 5.10
pIC50 [9]: < 5.10
pIC50 [10]: 5.70
pIC50 [11]: < 5.10
pIC50 [12]: 5.56
pIC50 [13]: 5.74
pIC50 [14]: 5.28
pIC50 [15]: < 5.10
pIC50 [16]: < 5.10
pIC50 [17]: < 5.10
pIC50 [18]: 5.12
pIC50 [19]: < 5.10
pIC50 [20]: < 5.10
pIC50 [21]: 5.28
pIC50 [22]: < 5.10
pIC50 [23]: < 5.10
pIC50 [24]: < 5.10
pIC50 [25]: 6.37
pIC50 [26]: 5.33
pIC50 [27]: 5.83
pIC50 [28]: < 5.10
pIC50 [29]: < 5.10
pIC50 [30]: 5.35
pIC50 [31]: 6.08
pIC50 [32]: 5.23
pIC50 [33]: < 5.10
pIC50 [34]: 6.13
pIC50 [35]: 6.13
pIC50 [36]: < 5.10
pIC50 [37]: < 5.10
pIC50 [38]: 5.34
pIC50 [39]: 5.17
pIC50 [40]: 5.60
pIC50 [41]: 5.57
pIC50 [42]: 5.93
pIC50 [43]: 5.16
pIC50 [44]: 5.13
pIC50 [45]: < 5.10
pIC50 [46]: 5.91
pIC50 [47]: < 5.10
pIC50 [48]: 5.93
pIC50 [49]: < 5.10
pIC50 [50]: 5.53
